In patent US20230312550A1, “N-(2-(4-CYANOTHIAZOLIDIN-3-YL)-2-OXOETHYL)-QUINOLINE-4-CARBOXAMIDES” (AstraZeneca AB, priority 2020, published 2023):
Converted amounts (≈) assume the structure as drawn.

Key:
[1] = target: T1, FAP (Homo sapiens (Human), UniProt Q12884); assay: hFAP inhibition assay; type: biochemical; details: hFAP […], Ala-Pro-AMC 20 μM; n = 1 or geometric mean n = 2-3
How it was run: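 Compounds (10-point, 3-fold dilutions from 50 μM top) were preincubated 15 min at rt in the dark with 0.48 nM hFAP in pH 7.4 Tris/NaCl/Chaps buffer. Reaction was started with substrate (40 μM solution) and ran 30 min at rt. Read by fluorescence (340/460 nm); IC50 from one-site fit.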
Target sequence in this assay (Q12884 38-760): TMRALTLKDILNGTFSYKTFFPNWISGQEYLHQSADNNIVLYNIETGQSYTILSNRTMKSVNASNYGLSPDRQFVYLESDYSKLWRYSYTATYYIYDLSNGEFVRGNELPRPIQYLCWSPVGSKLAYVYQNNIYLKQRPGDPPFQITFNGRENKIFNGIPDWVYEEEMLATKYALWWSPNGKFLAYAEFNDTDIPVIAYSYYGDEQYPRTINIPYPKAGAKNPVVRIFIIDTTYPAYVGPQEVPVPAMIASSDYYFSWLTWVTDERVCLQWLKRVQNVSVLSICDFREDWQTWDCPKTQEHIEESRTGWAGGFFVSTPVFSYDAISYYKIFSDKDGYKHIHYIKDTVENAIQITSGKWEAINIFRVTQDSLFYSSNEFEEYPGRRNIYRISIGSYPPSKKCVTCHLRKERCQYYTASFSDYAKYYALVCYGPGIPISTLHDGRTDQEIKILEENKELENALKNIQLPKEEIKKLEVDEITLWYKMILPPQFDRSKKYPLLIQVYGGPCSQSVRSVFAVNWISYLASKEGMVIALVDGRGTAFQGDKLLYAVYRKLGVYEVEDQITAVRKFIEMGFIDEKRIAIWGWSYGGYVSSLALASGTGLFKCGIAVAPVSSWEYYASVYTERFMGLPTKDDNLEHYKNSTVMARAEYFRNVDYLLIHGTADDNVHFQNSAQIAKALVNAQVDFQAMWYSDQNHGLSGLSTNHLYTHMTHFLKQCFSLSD

[2] = target: human Fibroblast activation protein alpha (hFAP) (Homo sapiens (Human), UniProt Q12884); assay: hFAP inhibition assay (tight binders); type: biochemical; details: Ala-Pro-AMC 20 μM, n = 1 or geometric mean n = 2-6; note: hFAP 2.4 pM
Method: The plates were read on a PHERAstar® reader with excitation 340 nm and emission 460 nm. Data were analyzed in Genedata Screener®. IC50 values were determined by plotting % inhibition versus log compound concentration and using a one site dose response model.

[3] = target: hFAP (M39-A757) (Homo sapiens (Human), UniProt Q12884); assay: hFAP binding assay (surface plasmon resonance); details: SPR, 20° C.; for hFAP Binding assay k(off) / hFAP Binding assay k(on): single cycle kinetics; for Kd: n = 1 or geometric mean n = 2-4
[4] = target: T1, FAP; assay: FAP plasma inhibition assay, human plasma; type: biochemical; details: human plasma diluted 1:40, Ala-Pro-AMC 75 μM
Method: (§1) This assay was adapted from the method described in Example 237 for detection of FAP target engagement enzyme activity in plasma. Plasma (anticoagulant K2EDTA) was used as the enzyme source: Human plasma (Pooled from AZ Biobank), Mouse plasma (AZ AST Biobank), and Cynomolgus plasma (BioIVT, #NHP00PLK2FNN, lot CYN222895). 384-Well black fluotrack PS plates (Greiner 781076) were used. 20 μL diluted plasma (Cynomolgus and Human plasma dilution 1:40, Mouse plasma dilution 1:67) in buffer (PBS, 0.1% BSA) was added to 0.6 μL compounds (in DMSO). Compounds were tested using 10 CR, 3 fold dilution series from 500 nM FAC. Two replicates for each assay point were run on the same plate. A fluorescence blank read was taken before substrate addition. […] Plates were incubated for 40 min at rt in the dark. […] IC50 values were determined by plotting % inhibition versus log compound concentration.
Target sequence in this assay (Q12884 24-760): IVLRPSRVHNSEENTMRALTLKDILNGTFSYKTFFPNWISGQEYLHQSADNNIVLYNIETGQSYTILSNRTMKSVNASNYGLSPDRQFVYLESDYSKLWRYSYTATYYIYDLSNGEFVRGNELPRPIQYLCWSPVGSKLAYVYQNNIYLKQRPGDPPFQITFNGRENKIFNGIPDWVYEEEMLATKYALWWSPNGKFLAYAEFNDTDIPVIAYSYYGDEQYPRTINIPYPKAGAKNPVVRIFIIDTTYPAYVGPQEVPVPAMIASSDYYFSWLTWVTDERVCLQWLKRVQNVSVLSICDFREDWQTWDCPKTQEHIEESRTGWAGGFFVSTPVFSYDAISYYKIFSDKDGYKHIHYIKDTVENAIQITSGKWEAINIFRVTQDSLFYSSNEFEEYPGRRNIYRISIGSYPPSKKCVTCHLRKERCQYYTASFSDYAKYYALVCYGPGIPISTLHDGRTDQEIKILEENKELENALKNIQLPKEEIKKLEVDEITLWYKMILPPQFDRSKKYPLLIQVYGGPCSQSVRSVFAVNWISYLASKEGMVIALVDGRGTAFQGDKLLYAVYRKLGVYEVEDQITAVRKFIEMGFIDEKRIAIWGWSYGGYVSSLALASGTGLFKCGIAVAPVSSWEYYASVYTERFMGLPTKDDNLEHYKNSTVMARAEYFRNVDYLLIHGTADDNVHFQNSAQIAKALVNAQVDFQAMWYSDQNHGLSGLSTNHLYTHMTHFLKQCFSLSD

[5] = target: FAP (Mus musculus (Mouse), UniProt P97321); assay: FAP plasma inhibition assay, mouse plasma; type: biochemical; details: mouse plasma diluted 1:67, Ala-Pro-AMC 75 μM
Method: as §1

[6] = target: Prolyl endopeptidase, Prolyl Oligopeptidase (hPREP) (Homo sapiens (Human), UniProt P48147); assay: hPrep inhibition assay; type: biochemical; details: hPREP 0.6 nM, Z-Gly-Pro-amino-methylcoumarin 50 μM; read-out: PREP IC50
How it was run: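 Fluorogenic read-out (340 nm excitation, 460 nm emission) after 20 min at rt, using 50 μM final Z-Gly-Pro-aminomethylcoumarin and 0.6 nM final enzyme, following 15 min compound preincubation. Buffer pH 7.5 with glutathione and Triton X-100. IC50 via one-site model on % inhibition vs log concentration.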

[7] = Kinetic solubility; details: kinetic from dmso stock, Solubility, kinetic solubility; n = 1 or average of n = 2-3
Method: Kinetic solubility was measured as described in Comput Aided Mol Des 2015, 29, 795.

[8] = Caco-2 cell permeability; details: human
Method: Caco-2 cell permeability was measured as described in Mol Pharm 2017, 14, 1601.

[9] = Metabolic stability in rat hepatocytes (rHep); details: n = 1 or geometric mean of n = 2-3
[10] = Metabolic stability in human liver microsomes (HLM); details: human, HLM CLint, n = 1 or average of n = 2-3
Method: Metabolic stability in HLM was measured as described in J Comput Aided Mol Des 2015, 29, 795.

[11] = Metabolic stability in human hepatocytes (hHep); type: in vitro ADME; details: n = 1 or geometric mean of n = 2

Sequence of hFAP (M39-A757) (Q12884 39-757): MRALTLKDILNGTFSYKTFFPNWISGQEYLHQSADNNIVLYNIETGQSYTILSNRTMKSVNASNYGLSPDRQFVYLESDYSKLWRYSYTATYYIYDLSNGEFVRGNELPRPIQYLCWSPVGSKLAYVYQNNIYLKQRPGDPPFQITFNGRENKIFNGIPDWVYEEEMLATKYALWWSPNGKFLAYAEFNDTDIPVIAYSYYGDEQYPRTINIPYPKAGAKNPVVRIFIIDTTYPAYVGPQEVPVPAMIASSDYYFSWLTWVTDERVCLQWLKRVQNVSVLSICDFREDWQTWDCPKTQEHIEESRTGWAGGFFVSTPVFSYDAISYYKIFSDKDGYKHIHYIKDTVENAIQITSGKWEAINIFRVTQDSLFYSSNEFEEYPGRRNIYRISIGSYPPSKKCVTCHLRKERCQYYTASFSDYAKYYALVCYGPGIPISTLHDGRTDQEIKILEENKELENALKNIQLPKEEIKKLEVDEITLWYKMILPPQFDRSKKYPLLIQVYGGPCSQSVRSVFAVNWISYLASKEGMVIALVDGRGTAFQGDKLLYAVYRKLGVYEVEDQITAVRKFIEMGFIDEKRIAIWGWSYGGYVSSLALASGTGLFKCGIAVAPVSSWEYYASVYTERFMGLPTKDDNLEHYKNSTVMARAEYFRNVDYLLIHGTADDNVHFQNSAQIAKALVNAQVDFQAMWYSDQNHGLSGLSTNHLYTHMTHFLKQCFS
Sequence of Prolyl endopeptidase, Prolyl Oligopeptidase (hPREP) (P48147 whole entry): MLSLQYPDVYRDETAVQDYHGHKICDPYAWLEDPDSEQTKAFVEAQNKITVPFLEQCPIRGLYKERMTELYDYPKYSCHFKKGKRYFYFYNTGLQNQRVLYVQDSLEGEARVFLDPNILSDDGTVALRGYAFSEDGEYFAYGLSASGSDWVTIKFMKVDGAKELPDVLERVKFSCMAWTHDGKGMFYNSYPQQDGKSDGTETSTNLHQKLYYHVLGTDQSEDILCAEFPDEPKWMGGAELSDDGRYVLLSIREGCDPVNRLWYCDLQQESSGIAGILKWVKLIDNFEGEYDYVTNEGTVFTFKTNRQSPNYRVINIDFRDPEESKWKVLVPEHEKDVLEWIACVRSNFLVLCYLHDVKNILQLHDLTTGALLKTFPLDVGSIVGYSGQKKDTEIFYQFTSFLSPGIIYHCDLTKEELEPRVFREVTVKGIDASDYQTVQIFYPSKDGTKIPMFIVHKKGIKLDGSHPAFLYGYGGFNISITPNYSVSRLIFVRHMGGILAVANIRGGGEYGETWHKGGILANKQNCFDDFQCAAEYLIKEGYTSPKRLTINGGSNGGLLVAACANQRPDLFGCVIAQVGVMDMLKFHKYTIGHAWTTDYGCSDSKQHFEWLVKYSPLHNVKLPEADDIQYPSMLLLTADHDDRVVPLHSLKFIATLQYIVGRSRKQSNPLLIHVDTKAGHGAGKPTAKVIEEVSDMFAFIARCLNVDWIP
Sequence of FAP (Mus musculus (Mouse), UniProt P97321) (P97321 24-761): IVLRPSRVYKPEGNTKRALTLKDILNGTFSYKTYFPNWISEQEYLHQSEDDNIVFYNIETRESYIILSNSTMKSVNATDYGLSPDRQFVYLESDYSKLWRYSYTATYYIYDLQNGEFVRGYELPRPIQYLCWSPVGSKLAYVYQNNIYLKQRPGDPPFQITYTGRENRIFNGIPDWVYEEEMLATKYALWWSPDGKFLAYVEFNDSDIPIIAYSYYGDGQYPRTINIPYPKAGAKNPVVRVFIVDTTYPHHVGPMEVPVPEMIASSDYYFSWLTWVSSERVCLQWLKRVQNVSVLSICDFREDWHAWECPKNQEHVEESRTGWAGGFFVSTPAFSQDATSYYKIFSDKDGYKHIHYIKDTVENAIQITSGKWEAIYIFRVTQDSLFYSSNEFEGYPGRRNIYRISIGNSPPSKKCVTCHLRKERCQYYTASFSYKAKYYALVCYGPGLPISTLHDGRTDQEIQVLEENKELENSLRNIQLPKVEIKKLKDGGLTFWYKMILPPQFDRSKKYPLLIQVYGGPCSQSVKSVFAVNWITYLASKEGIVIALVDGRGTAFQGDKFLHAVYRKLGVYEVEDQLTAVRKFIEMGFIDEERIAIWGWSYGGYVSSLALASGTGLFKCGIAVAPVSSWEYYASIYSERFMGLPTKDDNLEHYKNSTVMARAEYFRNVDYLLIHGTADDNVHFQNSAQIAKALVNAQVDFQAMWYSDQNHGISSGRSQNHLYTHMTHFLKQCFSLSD
Sequence of human Fibroblast activation protein alpha (hFAP) (Q12884 38-760): as the sequence (Q12884 38-760) above

Cn1nccc1-c1ccc2nccc(C(=O)NCC(=O)N3CSC[C@H]3C#N)c2c1 [Example 174, (R)—N-(2-(4-Cyanothiazolidin-3-yl)-2-oxoethyl)-6-(1-methyl-1H-pyrazol-5-yl)quinoline-4-carboxamide]
IC50 [1]: 0.44 nM | IC50 [2]: 0.26 nM | hFAP Binding assay k(off) [3]: 0.00024 s⁻¹ | hFAP Binding assay k(on) [3]: 1900000 M⁻¹ s⁻¹ | Kd [3]: 0.13 nM | IC50 [4]: 0.2 nM | IC50 [5]: 0.4 nM | IC50 [6]: 87 nM | solubility [7]: 800 µM (≈ 325 µg/mL) | Papp A→B [8]: 0.54 ×10⁻⁶ cm/s | Papp B→A [8]: 25 ×10⁻⁶ cm/s | efflux ratio [8]: 46 | rHep CLint [9]: 7.2 μL/min/1E6 | microsomal CLint [10]: 12 µL/min/mg

CN1CCC(F)(c2ccc3nccc(C(=O)NCC(=O)N4CSC[C@H]4C#N)c3c2)CC1 [Example 195, (R)—N-(2-(4-Cyanothiazolidin-3-yl)-2-oxoethyl)-6-(4-fluoro-1-methyl-piperidin-4-yl)quinoline-4-carboxamide]
IC50 [2]: 0.39 nM | hFAP Binding assay k(off) [3]: 0.000061 s⁻¹ | hFAP Binding assay k(on) [3]: 190000 M⁻¹ s⁻¹ | Kd [3]: 0.33 nM | IC50 [4]: 0.9 nM | IC50 [5]: 1.4 nM | IC50 [6]: 1200 nM | solubility [7]: 830 µM (≈ 366 µg/mL) | Papp A→B [8]: 0.4 ×10⁻⁶ cm/s | Papp B→A [8]: 4.8 ×10⁻⁶ cm/s | efflux ratio [8]: 12 | rHep CLint [9]: 1.8 μL/min/1E6 | microsomal CLint [10]: < 3 µL/min/mg

CC1(C)OCCN(c2ccc3nccc(C(=O)NCC(=O)N4CSC[C@H]4C#N)c3c2)C1=O [Example 16, (R)—N-(2-(4-Cyanothiazolidin-3-yl)-2-oxoethyl)-6-(2,2-dimethyl-3-oxomorpholino)quinoline-4-carboxamide]
IC50 [2]: 0.11 nM | hFAP Binding assay k(off) [3]: 0.000041 s⁻¹ | hFAP Binding assay k(on) [3]: 740000 M⁻¹ s⁻¹ | Kd [3]: 0.054 nM | IC50 [4]: 0.2 nM | IC50 [5]: 0.4 nM | IC50 [6]: 1600 nM | solubility [7]: 170 µM (≈ 77.1 µg/mL) | Papp A→B [8]: 0.16 ×10⁻⁶ cm/s | Papp B→A [8]: 4.2 ×10⁻⁶ cm/s | efflux ratio [8]: 26 | rHep CLint [9]: <1 μL/min/1E6 | microsomal CLint [10]: < 3 µL/min/mg

CC(F)(F)C1CN(c2ccc3nccc(C(=O)NCC(=O)N4CSC[C@H]4C#N)c3c2)C1 [Example 147, (R)—N-(2-(4-Cyanothiazolidin-3-yl)-2-oxoethyl)-6-(3-(1,1-difluoroethyl)-azetidin-1-yl)quinoline-4-carboxamide]
IC50 [2]: 0.067 nM | hFAP Binding assay k(off) [3]: 0.00012 s⁻¹ | hFAP Binding assay k(on) [3]: 2800000 M⁻¹ s⁻¹ | Kd [3]: 0.045 nM | IC50 [4]: 0.1 nM | IC50 [5]: 0.2 nM | IC50 [6]: 570 nM | solubility [7]: 40 µM (≈ 17.8 µg/mL) | Papp A→B [8]: 2.7 ×10⁻⁶ cm/s | Papp B→A [8]: 40 ×10⁻⁶ cm/s | efflux ratio [8]: 15 | rHep CLint [9]: 2.9 μL/min/1E6 | microsomal CLint [10]: 17 µL/min/mg

COc1ccc(-c2ccc3nccc(C(=O)NCC(=O)N4CSC[C@H]4C#N)c3c2)cn1 [Example 178, (R)—N-(2-(4-Cyanothiazolidin-3-yl)-2-oxoethyl)-6-(6-methoxypyridin-3-yl)quinoline-4-carboxamide]
IC50 [1]: 0.2 nM | IC50 [2]: 0.042 nM | hFAP Binding assay k(off) [3]: 0.00017 s⁻¹ | hFAP Binding assay k(on) [3]: 3100000 M⁻¹ s⁻¹ | Kd [3]: 0.053 nM | IC50 [4]: 0.1 nM | IC50 [5]: 0.1 nM | IC50 [6]: 120 nM | solubility [7]: 6 µM (≈ 2.6 µg/mL) | rHep CLint [9]: 7.2 μL/min/1E6 | microsomal CLint [10]: 16 µL/min/mg

C[C@@H]1CCCN(c2ccc3nccc(C(=O)NCC(=O)N4CSC[C@H]4C#N)c3c2)C1=O (single isomer, unassigned) [Example 204, N-(2-((R)-4-Cyanothiazolidin-3-yl)-2-oxoethyl)-6-((R*)-3-methyl-2-oxopiperidin-1-yl)quinoline-4-carboxamide]
IC50 [2]: 0.067 nM | hFAP Binding assay k(off) [3]: 0.000058 s⁻¹ | hFAP Binding assay k(on) [3]: 850000 M⁻¹ s⁻¹ | Kd [3]: 0.068 nM | IC50 [4]: 0.2 nM | IC50 [5]: 0.3 nM | IC50 [6]: 920 nM | solubility [7]: 480 µM (≈ 210 µg/mL) | Papp A→B [8]: 0.44 ×10⁻⁶ cm/s | Papp B→A [8]: 8.5 ×10⁻⁶ cm/s | efflux ratio [8]: 19 | rHep CLint [9]: 1.8 μL/min/1E6 | microsomal CLint [10]: 8 µL/min/mg

N#C[C@@H]1CSCN1C(=O)CNC(=O)c1ccnc2ccc(N3CCO[C@H](C(F)(F)F)C3)cc12 [Example 74, N-(2-((R)-4-Cyanothiazolidin-3-yl)-2-oxoethyl)-6-((S)-2-(trifluoromethyl)-morpholino)quinoline-4-carboxamide]
IC50 [2]: 0.094 nM | hFAP Binding assay k(off) [3]: 0.00016 s⁻¹ | hFAP Binding assay k(on) [3]: 1100000 M⁻¹ s⁻¹ | Kd [3]: 0.14 nM | IC50 [4]: 0.2 nM | IC50 [5]: 0.3 nM | IC50 [6]: 2300 nM | hHep CLint [11]: <1 μL/min/1E6 | solubility [7]: 180 µM (≈ 86.3 µg/mL) | Papp A→B [8]: 1.8 ×10⁻⁶ cm/s | Papp B→A [8]: 53 ×10⁻⁶ cm/s | efflux ratio [8]: 29 | rHep CLint [9]: 13 μL/min/1E6 | microsomal CLint [10]: 28 µL/min/mg

N#C[C@@H]1CSCN1C(=O)CNC(=O)c1c(F)cnc2ccc(N3CCOCC3)cc12 [Example 2, (R)—N-(2-(4-Cyanothiazolidin-3-yl)-2-oxoethyl)-3-fluoro-6-morpholino-quinoline-4-carboxamide]
IC50 [2]: 0.52 nM | hFAP Binding assay k(off) [3]: 0.0038 s⁻¹ | hFAP Binding assay k(on) [3]: 410000 M⁻¹ s⁻¹ | Kd [3]: 9.5 nM | IC50 [4]: 8.1 nM | IC50 [5]: 7.3 nM | IC50 [6]: 1700 nM | hHep CLint [11]: <1 μL/min/1E6 | solubility [7]: 83 µM (≈ 35.6 µg/mL) | Papp [8]: 23 ×10⁻⁶ cm/s | Papp A→B [8]: 0.98 ×10⁻⁶ cm/s | Papp B→A [8]: 31 ×10⁻⁶ cm/s | efflux ratio [8]: 32 | rHep CLint [9]: 3 μL/min/1E6 | microsomal CLint [10]: 22 µL/min/mg

C[C@H]1CCCN(c2ccc3nccc(C(=O)NCC(=O)N4CSC[C@H]4C#N)c3c2)C1=O (single isomer, unassigned) [Example 203, N-(2-((R)-4-Cyanothiazolidin-3-yl)-2-oxoethyl)-6-((R*)-3-methyl-2-oxopiperidin-1-yl)quinoline-4-carboxamide]
IC50 [2]: 0.26 nM | hFAP Binding assay k(off) [3]: 0.000063 s⁻¹ | hFAP Binding assay k(on) [3]: 440000 M⁻¹ s⁻¹ | Kd [3]: 0.15 nM | IC50 [4]: 0.4 nM | IC50 [5]: 0.5 nM | IC50 [6]: 3500 nM | solubility [7]: 540 µM (≈ 236 µg/mL) | Papp A→B [8]: 0.4 ×10⁻⁶ cm/s | Papp B→A [8]: 8 ×10⁻⁶ cm/s | efflux ratio [8]: 20 | rHep CLint [9]: 2.9 μL/min/1E6 | microsomal CLint [10]: 12 µL/min/mg

CO[C@@H]1CN(c2ccc3nccc(C(=O)NCC(=O)N4CSC[C@H]4C#N)c3c2)[C@H]1C [Example 30, N-(2-((R)-4-Cyanothiazolidin-3-yl)-2-oxoethyl)-6-((2S,3R)-3-methoxy-2-methylazetidin-1-yl)quinoline-4-carboxamide]
IC50 [1]: 0.28 nM | IC50 [2]: 0.12 nM | hFAP Binding assay k(off) [3]: 0.00022 s⁻¹ | hFAP Binding assay k(on) [3]: 5200000 M⁻¹ s⁻¹ | Kd [3]: 0.042 nM | IC50 [6]: 510 nM | hHep CLint [11]: <1 μL/min/1E6 | solubility [7]: > 1000 µM | Papp [8]: 15 ×10⁻⁶ cm/s | Papp A→B [8]: 3.1 ×10⁻⁶ cm/s | Papp B→A [8]: 30 ×10⁻⁶ cm/s | efflux ratio [8]: 9.6 | rHep CLint [9]: 7.2 μL/min/1E6 | microsomal CLint [10]: < 3 µL/min/mg

C[C@@H]1COC[C@H](C)N1c1ccc2nccc(C(=O)NCC(=O)N3CSC[C@H]3C#N)c2c1 [Example 90, N-(2-((R)-4-Cyanothiazolidin-3-yl)-2-oxoethyl)-6-((3S,5R)-3,5-dimethyl-morpholino)quinoline-4-carboxamide]
IC50 [1]: 0.75 nM | IC50 [2]: 0.35 nM | hFAP Binding assay k(off) [3]: 0.00010 s⁻¹ | hFAP Binding assay k(on) [3]: 480000 M⁻¹ s⁻¹ | Kd [3]: 0.38 nM | IC50 [6]: 1100 nM | hHep CLint [11]: 4.6 μL/min/1E6 | solubility [7]: > 1000 µM | Papp A→B [8]: 1.2 ×10⁻⁶ cm/s | Papp B→A [8]: 19 ×10⁻⁶ cm/s | efflux ratio [8]: 16 | rHep CLint [9]: 20 μL/min/1E6 | microsomal CLint [10]: 100 µL/min/mg
